By EC50 is commonly meant the concentration needed to bring the measured effect to its halfway point. As usually defined, the CC50 is the concentration that lowers cell viability or growth by half. One may read the IC50 as the concentration that inhibits the measured activity by half.

The source made the active and inactive calls. The calls are words filed in the database; no cut-off is given here.

Data set [1] relates to Leishmania donovani. The data set can be described thus: Inhibition of Leishmania donovani Top1B expressed in Top1B deficient Saccharomyces cerevisiae EKY3 assessed as decrease in relaxation of supercoiled pSK DNA preincubated for 15 mins followed by DNA addition and measured after 16 mins by agarose gel electrophoresis.
The subject of data set [2] is Leishmania infantum. The data set can be described thus: Leishmanicidal activity against amastigote stage of iRFP expressing Leishmania infantum BCN150 infected in BALB/c mouse splenocytes assessed as decrease in parasite viability by fluorescence assay. It counts as functional, organism-based.
Data set [3] can be described thus: Cytotoxicity against BALB/c mouse splenocytes assessed as reduction in cell viability by alamar blue assay. It counts as cell-based, Splenocyte. In general terms: The colour change of resazurin is a common sign of viable cells or microbes.
In data set [4] the target is T1, DNA topoisomerase 1 (Homo sapiens, UniProt P11387).
T1 sequence (P11387 whole entry): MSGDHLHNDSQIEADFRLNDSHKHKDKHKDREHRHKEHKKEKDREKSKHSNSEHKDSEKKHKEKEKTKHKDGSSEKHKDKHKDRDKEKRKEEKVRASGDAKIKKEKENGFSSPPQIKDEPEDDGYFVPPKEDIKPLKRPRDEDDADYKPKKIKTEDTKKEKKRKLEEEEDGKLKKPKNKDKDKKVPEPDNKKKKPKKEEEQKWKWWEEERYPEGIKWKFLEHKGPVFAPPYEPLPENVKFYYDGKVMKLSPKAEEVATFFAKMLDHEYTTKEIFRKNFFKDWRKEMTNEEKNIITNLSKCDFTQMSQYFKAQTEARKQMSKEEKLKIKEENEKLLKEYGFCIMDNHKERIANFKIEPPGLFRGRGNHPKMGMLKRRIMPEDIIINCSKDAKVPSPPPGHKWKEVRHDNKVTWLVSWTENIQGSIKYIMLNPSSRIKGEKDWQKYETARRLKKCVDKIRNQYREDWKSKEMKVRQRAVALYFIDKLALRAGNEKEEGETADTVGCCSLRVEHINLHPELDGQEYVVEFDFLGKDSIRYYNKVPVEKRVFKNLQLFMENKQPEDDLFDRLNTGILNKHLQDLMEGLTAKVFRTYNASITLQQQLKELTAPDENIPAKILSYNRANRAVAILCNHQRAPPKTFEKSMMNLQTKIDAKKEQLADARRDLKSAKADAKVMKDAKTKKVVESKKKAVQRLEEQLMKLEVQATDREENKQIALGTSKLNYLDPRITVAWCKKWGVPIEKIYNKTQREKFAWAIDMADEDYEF
The data set can be described thus: Inhibition of human Top1B expressed in Top1B deficient Saccharomyces cerevisiae EKY3 assessed as decrease in relaxation of supercoiled pSK DNA preincubated for 15 mins followed by DNA addition and measured after 5 mins by agarose gel electrophoresis. The conditions noted are these: read-out: IC50.

Data set [5] in a line: Selectivity index, ratio of CC50 for BALB/c mouse splenocytes to EC50 for amastigote stage of iRFP expressing Leishmania infantum BCN150 infected in BALB/c mouse splenocytes. Format: toxicity, cell-based. The conditions noted are these: read-out: Ratio CC50/EC50.
Data set [6] relates to Leishmania donovani. The data set can be described thus: Inhibition of Leishmania donovani Top1B expressed in Top1B deficient Saccharomyces cerevisiae EKY3 assessed as decrease in relaxation of supercoiled pSK DNA preincubated for 15 mins followed by DNA addition and measured after 2 to 8 mins by agarose gel electrophoresis.
A short description of data set [7]: Inhibition of Leishmania donovani Top1B expressed in Top1B deficient Saccharomyces cerevisiae EKY3 assessed as decrease in relaxation of supercoiled pSK DNA preincubated for 15 mins followed by DNA addition and measured after 5 mins by agarose gel electrophoresis. The conditions noted are these: read-out: IC50.
The target in data set [8] is T2, DNA topoisomerase 1 (Homo sapiens) (UniProt P11387).
T2 sequence (whole entry): T1 sequence (P11387 whole entry)
The data set can be described thus: Inhibition of human Top1B expressed in Top1B deficient Saccharomyces cerevisiae EKY3 assessed as decrease in relaxation of supercoiled pSK DNA preincubated for 15 mins followed by DNA addition and measured after 16 mins by agarose gel electrophoresis.

Data set [9] has as its target T2, DNA topoisomerase 1 (Homo sapiens). The data set can be described thus: Inhibition of human Top1B expressed in Top1B deficient Saccharomyces cerevisiae EKY3 assessed as decrease in relaxation of supercoiled pSK DNA preincubated for 15 mins followed by DNA addition and measured after 2 to 8 mins by agarose gel electrophoresis.
Data set [10] has as its system Leishmania infantum. The data set can be described thus: Leishmanicidal activity against promastigote stage of iRFP expressing Leishmania infantum BCN150 assessed as decrease in parasite viability after 72 hrs by fluorescence assay. Format: functional, organism-based. The conditions noted are these: BCN150, 72 h.

On to `O=P(c1ccccc1)(c1ccccc1)c1cccc2c(-c3ccc(F)cc3)cc(-c3ccc(F)c(F)c3)nc12`, for which the inhibition entry in data set [1] and in [8] was “inactive” in each case. The values for the EC50 in data set [2] and in [10] were 2150 nM and 2330 nM, respectively. The 50% cytotoxic concentration (CC50) in data set [3] is 23.9 µM. Moreover, the IC50 is 69.6 µM in data set [4] and 48.1 µM in data set [7]. Also, the selectivity ratio in [5] amounted to 11.1. Moreover, the inhibition entry in data set [6] and in data set [9] was “Active” throughout.

The record behind these values is ChEMBL document CHEMBL4382214, “Antileishmanial activity of new hybrid tetrahydroquinoline and quinoline derivatives with phosphorus substituents” (Eur J Med Chem, 2019).
